# Publication PMC7377474, “Preclinical characterization of CPL302-253, a selective inhibitor of PI3Kδ, as the candidate for the inhalatory treatment and prevention of Asthma” (PLoS ONE, 2020)
# Values joined by “and” are separate entries in the source; they are usually repeats but may differ in a detail not shown here. Equal values may be shown once. Read-outs that look alike come from different tables or passages of the source.
# Assays:
# PI3Kδ = molecular target: T1, PI3Kδ (Homo sapiens, UniProt O00329); assay: KINOMEScan competitive binding assay, Kd
# T1 construct: purchased Discoverex (KINOMEscan service)
# T1 sequence (O00329 whole entry): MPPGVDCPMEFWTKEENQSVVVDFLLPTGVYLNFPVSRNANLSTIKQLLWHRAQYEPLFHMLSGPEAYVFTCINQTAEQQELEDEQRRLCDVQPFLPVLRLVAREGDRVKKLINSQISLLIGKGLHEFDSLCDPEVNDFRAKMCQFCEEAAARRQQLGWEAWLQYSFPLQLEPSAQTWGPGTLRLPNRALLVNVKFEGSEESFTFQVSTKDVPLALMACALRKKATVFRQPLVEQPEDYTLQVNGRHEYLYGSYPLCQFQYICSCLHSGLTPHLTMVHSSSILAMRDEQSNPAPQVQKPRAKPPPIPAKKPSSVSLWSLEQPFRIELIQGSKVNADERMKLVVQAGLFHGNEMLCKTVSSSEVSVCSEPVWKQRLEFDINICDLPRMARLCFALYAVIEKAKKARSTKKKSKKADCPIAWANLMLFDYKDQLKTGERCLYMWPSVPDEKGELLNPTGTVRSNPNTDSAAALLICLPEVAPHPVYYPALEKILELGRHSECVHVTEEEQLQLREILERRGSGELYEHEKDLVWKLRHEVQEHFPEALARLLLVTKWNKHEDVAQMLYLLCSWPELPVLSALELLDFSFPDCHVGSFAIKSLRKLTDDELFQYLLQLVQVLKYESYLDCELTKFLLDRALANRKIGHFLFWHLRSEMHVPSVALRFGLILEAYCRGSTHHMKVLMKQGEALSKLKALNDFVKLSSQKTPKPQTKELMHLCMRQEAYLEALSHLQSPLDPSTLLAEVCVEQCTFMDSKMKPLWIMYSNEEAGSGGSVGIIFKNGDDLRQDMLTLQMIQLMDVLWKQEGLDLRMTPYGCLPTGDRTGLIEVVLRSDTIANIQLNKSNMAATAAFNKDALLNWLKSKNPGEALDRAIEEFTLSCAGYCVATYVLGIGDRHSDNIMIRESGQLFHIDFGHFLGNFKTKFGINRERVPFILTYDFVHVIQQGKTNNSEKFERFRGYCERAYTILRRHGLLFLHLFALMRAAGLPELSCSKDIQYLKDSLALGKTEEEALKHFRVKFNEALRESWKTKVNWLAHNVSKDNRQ
# Description: (§1) The inhibitor-kinase binding affinity was assessed in KINOMEscan™ assay (Discoverex) according to service provider’s protocol. In brief, in this binding assay the studied compound in solution is incubated with DNA-tagged kinase and kinase active-site directed ligand bound to the beads. The compound competes for binding to kinase with the immobilized ligand. After incubation beads are removed from the solution and kinase bound to ligand is quantified by qPCR. The strength of compound binding is determined based on its ability to block kinase-ligand binding. 11-point 3-fold serial dilution of CPL302-253 was used in order to determine its binding constants (Kd) against different isotypes of class I PI3K. The single concentration of CPL302-253 was used in order to determine its specificity in abroad panel of 468 human kinases. The measure of compounds affinity to each kinase in the panel was the percentage of kinase activity inhibition by tested ligand in comparison to the control.
# hERG = molecular target: T2, hERG (Homo sapiens, UniProt Q12809); format: cell-based; settings: 10 μM
# T2 construct: purchased DiscoverX (Eurofins) SafetyScan44
# T2 sequence (Q12809 whole entry): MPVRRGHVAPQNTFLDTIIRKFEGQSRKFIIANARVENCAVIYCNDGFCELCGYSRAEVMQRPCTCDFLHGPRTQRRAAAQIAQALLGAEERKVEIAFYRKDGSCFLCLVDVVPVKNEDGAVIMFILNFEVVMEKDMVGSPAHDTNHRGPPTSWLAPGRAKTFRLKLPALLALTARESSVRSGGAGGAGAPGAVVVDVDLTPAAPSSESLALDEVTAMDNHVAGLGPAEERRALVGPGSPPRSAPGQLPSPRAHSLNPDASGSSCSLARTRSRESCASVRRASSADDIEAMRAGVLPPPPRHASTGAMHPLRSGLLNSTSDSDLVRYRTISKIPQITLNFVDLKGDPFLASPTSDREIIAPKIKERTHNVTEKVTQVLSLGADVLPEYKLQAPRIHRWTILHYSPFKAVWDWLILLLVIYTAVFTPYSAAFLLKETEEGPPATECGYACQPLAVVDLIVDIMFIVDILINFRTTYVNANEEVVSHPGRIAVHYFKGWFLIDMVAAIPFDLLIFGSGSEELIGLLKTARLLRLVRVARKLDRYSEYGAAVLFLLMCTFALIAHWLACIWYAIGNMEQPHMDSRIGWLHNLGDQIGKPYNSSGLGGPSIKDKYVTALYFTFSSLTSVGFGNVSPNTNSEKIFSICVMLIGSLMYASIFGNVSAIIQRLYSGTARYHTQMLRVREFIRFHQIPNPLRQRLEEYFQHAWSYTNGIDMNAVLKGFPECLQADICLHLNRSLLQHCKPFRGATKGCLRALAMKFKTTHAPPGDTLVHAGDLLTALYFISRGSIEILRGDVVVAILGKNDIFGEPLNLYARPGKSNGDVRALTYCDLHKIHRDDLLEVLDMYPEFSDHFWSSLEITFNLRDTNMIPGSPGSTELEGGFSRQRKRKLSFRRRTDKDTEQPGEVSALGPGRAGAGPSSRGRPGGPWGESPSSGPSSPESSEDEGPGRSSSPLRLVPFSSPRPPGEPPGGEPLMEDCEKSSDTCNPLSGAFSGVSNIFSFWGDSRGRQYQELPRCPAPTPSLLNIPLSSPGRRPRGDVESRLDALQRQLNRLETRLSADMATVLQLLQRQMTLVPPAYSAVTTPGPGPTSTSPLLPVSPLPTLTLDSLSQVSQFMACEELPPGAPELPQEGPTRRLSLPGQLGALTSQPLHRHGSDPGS
# Description: SafetyScan44 assay was performed by DiscoverX according to service provider’s protocol.
# [1] = tested on: A549 cells co-cultured with CD8 T cells; assay: A549 CD8 T cell co-culture, IL-33 expression; format: cell-based, human; settings: 1 μM, 72 h
# Description: A549 cells were seeded into 48-well plate. CD8 T cells were isolated from frozen human PBMC using EasySep Human CD8 T cell Isolation Kit (StemCell Technologies) according to manufacturer’s protocol. A549 were co-cultured with CD8 T cells at 1 to 5 ratios for 72 h. In some cultures, CD8 cells were activated with Human T Cell Activation/Expansion Kit (Miltenyibiotec) according to manufacturer’s protocol. After 72h CD8 cells were removed by rinsing with PBS. Adherent A549 cells were suspended in 100 μl RIPA and IL-33 was assessed in cell lysates using IL-33 Human Uncoated ELISA Kit (Invitrogen). Due to high variability in cell activation the data were normalized (measure for each experimental condition was divided by average of measures for all experimental conditions in the experiment).
# neutrophils = assay: Neutrophils IL-8 production; format: cell-based, human; settings: 6 h, 1 μM
# Description: Neutrophils were isolated using EasySep Direct Human Neutrophil Isolation Kit (StemCell Technologies) from fresh whole blood of healthy donors by magnetic bead isolation according to manufacturer’s protocol. The cells were cultured in AIM V medium (Gibco). After 30 min pre-treatment with CPL302-253 (1 μM) neutrophils were stimulated with Cigarette Smoke Extract (CSE) (Murty Laboratories) at 100 μg/ml or LPS from E. coli O55:B5 (Sigma-Aldrich) at 1 μg/ml. After 6 h of incubation the culture supernatants were collected and IL-8 production was measured using IL-8 Human Uncoated ELISA Kit (Invitrogen) according to manufacturer’s protocol
# basophils = assay: Basophils activation (Flow CAST Basophil Activation Test); format: cell-based, human; settings: for IC50: anti-FcεRI antibody; for IgE (basophil activation, Fig 4D): concentration 0 = 100
# Description: The study was performed using Flow CAST Basophil Activation Test (Buhlmann) according to manufacturer’s protocol with modifications. In brief to U bottom 96-well plate 50 μl of stimulus solution (stimulating antibody specific for the high-affinity IgE receptor FcεRI) or assay bufferwas added. Subsequently to some wells, 50 μl of inhibitor at different concentrations in assay buffer was added. In the next step 50 μl of EDTA collected fresh human blood was added to each well followed by 50 μl of staining reagent (diluted 2:3 in assay buffer). The cells were incubated for 25 min at 37°Cin humidified incubator in the presence of 5% CO2. After incubation cells were centrifuged and erythrocytes were lysed with pre-warmed (18–28°C) Lysing Reagent. After centrifugation cells were suspended in Wash Buffer and analysed by FACSCalibur. Data were analysed using CellQuestPro and FlowJo software.
# PI3Kα = PI3Kα (Homo sapiens, UniProt P42336); assay: KINOMEScan competitive binding assay, Kd; parameters: purchased Discoverex (KINOMEscan service)
# Sequence of PI3Kα (P42336 whole entry): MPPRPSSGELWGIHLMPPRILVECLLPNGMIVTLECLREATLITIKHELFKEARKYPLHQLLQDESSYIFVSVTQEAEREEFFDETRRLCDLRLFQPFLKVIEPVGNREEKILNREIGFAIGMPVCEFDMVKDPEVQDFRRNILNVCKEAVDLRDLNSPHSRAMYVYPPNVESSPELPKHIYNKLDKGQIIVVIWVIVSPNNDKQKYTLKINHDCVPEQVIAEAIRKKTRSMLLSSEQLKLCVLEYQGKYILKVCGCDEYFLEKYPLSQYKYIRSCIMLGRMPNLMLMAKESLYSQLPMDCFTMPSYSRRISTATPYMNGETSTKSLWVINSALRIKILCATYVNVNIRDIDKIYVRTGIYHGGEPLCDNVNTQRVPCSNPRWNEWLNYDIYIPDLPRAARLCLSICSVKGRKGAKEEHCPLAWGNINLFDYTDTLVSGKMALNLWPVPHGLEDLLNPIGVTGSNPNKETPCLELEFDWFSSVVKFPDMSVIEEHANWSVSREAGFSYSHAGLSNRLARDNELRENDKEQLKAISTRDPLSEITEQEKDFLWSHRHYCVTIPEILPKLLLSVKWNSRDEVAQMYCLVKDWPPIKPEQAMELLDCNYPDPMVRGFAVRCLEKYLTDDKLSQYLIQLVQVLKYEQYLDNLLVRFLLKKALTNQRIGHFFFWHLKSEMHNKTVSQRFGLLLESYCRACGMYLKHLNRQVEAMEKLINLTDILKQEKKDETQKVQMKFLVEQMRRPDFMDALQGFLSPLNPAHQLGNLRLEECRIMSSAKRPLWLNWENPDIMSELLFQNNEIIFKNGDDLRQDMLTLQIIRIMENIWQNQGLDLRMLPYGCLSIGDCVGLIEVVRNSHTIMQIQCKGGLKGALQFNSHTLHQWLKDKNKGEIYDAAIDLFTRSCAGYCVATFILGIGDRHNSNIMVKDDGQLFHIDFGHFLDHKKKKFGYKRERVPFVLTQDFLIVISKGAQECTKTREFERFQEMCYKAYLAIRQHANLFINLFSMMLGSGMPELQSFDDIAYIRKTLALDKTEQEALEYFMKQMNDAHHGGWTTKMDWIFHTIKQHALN
# Description: as §1
# PI3Kβ = PI3Kβ (Homo sapiens, UniProt P42338); assay: KINOMEScan competitive binding assay, Kd; parameters: purchased Discoverex (KINOMEscan service)
# Sequence of PI3Kβ (P42338 whole entry): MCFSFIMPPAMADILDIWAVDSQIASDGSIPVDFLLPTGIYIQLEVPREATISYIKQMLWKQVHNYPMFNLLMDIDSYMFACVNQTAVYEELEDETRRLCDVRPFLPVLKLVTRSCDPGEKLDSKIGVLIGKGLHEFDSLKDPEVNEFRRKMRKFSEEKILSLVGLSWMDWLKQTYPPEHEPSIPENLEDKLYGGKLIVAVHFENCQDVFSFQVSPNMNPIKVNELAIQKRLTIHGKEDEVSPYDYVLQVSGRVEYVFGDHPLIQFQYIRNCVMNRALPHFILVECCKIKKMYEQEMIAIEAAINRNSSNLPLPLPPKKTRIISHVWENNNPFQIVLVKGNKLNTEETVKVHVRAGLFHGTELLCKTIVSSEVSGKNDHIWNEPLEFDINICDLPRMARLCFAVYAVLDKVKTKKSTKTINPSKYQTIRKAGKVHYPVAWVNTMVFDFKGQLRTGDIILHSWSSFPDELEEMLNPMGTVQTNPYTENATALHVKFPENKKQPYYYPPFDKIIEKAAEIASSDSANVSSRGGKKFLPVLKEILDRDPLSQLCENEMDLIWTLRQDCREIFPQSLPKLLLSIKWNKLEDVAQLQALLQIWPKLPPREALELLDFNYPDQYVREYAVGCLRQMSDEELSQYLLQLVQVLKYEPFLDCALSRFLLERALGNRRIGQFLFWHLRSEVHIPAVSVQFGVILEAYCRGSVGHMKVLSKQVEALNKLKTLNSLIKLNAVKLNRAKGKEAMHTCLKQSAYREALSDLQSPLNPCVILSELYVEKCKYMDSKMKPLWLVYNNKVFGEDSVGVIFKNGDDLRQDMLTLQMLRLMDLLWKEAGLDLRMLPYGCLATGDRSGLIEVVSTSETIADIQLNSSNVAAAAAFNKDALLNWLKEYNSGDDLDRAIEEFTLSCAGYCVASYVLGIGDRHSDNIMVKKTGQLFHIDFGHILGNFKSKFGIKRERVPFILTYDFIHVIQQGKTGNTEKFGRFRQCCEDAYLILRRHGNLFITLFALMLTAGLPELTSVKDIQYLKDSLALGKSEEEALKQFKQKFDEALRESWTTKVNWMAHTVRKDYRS
# Description: as §1
# PI3Kγ = PI3Kγ (Homo sapiens, UniProt P48736); assay: KINOMEScan competitive binding assay, Kd; parameters: purchased Discoverex (KINOMEscan service)
# Description: as §1
# [2] = tested on: HDM induced asthma mouse model; assay: HDM-steroid insensitive asthma mice model; settings: for IL-33 concentration in BAL (Fig 7B), single animals / eosinophils number in BAL (Fig 7A), single animals: day 15
# [3] = HDM + 0.5 mg/kg i.n., 0.5 mg/kg
# [4] = i.n. on day 12, 13 and 14, HDM challenge day 14, BALF day 15
smiles,measurement,setting,value
CC(C)(C)N1CCN(Cc2cc3nc(-c4cncc5[nH]ccc45)cc(N4CCOCC4)n3n2)CC1 [CPL302-253],Kd,PI3Kδ,0.85 nM
same,% Response hERG Blocker,hERG,-2.7%
same,"IL-33 expression, normalized (Fig 3D), single replicates","[1]; A549 CD8 A (activated CD8), divided by average of all conditions",0.4059 and 0.7122 and 0.4707
same,IL-33 expression in co-cultures,[1]; A549 with activated CD8 cells,strong inhibition of IL-33 expression
same,"IL-8 release (Fig 4B), single replicates",neutrophils; 1 μg/ml LPS,471 and 860 and 464
same,"IL-8 release (Fig 4A), single replicates",neutrophils; 100 μg/ml CSE,378 and 136 and 362
same,IL-8 production by neutrophils,neutrophils; after CSE or LPS stimulation,reduced IL-8 production
same,IC50,"basophils; 25 min, human whole blood, 25 min, read-out: IC50 CD63 expression after basophils activation",36 nM
same,"IgE (basophil activation, Fig 4D)",basophils; Concentration 1 (unit not given),93.65
same,"IgE (basophil activation, Fig 4D)",basophils; Concentration 3 (unit not given),103.18
same,"IgE (basophil activation, Fig 4D)",basophils; Concentration 10 (unit not given),85.97
same,"IgE (basophil activation, Fig 4D)",basophils; Concentration 33 (unit not given),51.03
same,"IgE (basophil activation, Fig 4D)",basophils; Concentration 100 (unit not given),22
same,"IgE (basophil activation, Fig 4D)",basophils; Concentration 333 (unit not given),3.87
same,"IgE (basophil activation, Fig 4D)",basophils; Concentration 1000 (unit not given),-1.11
same,"IgE (basophil activation, Fig 4D)",basophils; Concentration 3333 (unit not given),5.06
same,"IgE (basophil activation, Fig 4D)",basophils; Concentration 10000 (unit not given),-1.49
same,IC50,"basophils; Homo sapiens, basophil CD63 expression, read-out: IC50 (Fig 4D, printed in the picture)",36.2 nM
same,Kd,PI3Kα,1900 nM
same,Kd,PI3Kβ,390 nM
same,Kd,PI3Kγ,4800 nM
same,"IL-33 concentration in BAL (Fig 7B), single animals",[2]; [3],1.6 and -0.3 and -1.1 and -0.8 and -4.4 and 3 and 4.4 and -0.4 and -4.7 and 1.7
same,"eosinophils number in BAL (Fig 7A), single animals",[2]; [3],32736 and 8169.96 and 5712.6 and 6975 and 20671.5 and 48073 and 6811.27 and 9495.5 and 84434.2 and 46844.4
same,"IL-33 concentration in BAL (Fig 7B), single animals","[2]; HDM + 5 mg/kg i.n., 5 mg/kg",0.5 and 3 and -2.8 and 10.8 and 6.1 and 2.3 and 1 and 2.6 and 9.8
same,"eosinophils number in BAL (Fig 7A), single animals","[2]; HDM + 5 mg/kg i.n., 5 mg/kg",17665.4 and 6769.78 and 17936.5 and 52878.7 and 44238.8 and 8082.51 and 80102.2 and 24189.9 and 38935.1 and 17565.7
same,IL-33 production in the lungs,[2]; [4],effectively blocked
same,eosinophil influx to the lungs,[2]; [4],effectively blocked
